{"source": "paper PMC8652888", "about": "“Angiogenesis, Anti-Tumor, and Anti-Metastatic Activity of Novel α-Substituted Hetero-Aromatic Chalcone Hybrids as Inhibitors of Microtubule Polymerization” (Frontiers in Chemistry, 2021)", "key": {"[1]": {"test_system": "MCF-7 cells", "experiment": "Wound healing assay", "assay_type": "cell-based, human", "details": "48 h", "experimental": "In order to evaluate whether 7m could suppress migration and invasion, the MCF-7 cell culture was performed by wound healing and Transwell Matrigel assay, respectively.\nMCF-7 cells and HUVECs cells were grown in 24-well plates at a density of 1 × 10^6 cells per well for 24 h. Scratches were made in confluent monolayers by […] pipette tips. The media containing different concentrations of 7m were added to the Petri dishes. […] The migration distance of cells migrated to the wound area was measured manually."}, "[2]": {"test_system": "MCF-7 cells implanted in zebrafish embryos", "experiment": "Zebrafish xenograft assay", "assay_type": "in vivo", "details": "2.5, 5, 7.5 μΜ, 72 h", "experimental": "To examine the in vivo anti-tumor and anti-metastasis potency of 7m, we implanted Cell-Tracker Red CMTPX-labeled MCF-7 cells into the yolk of Tg (flk: EGFP) 48 hpf embryos, and different concentrations of 7m (2.5, 5, 7.5 μΜ) were added. The intensity of the red fluorescence is proportional to the size of the xenograft tumor. After 72 h, the effects of 7m on the tumor mass development and cancer cell metastasis were assessed by fluorescence microscopy. […] Without drug treatment, MCF-7 cells disseminated and migrated widely away from the original area, and some tumor cells even migrated into the blood vessels of the zebrafish tail at 72 hpf.\nThe tumor cells MCF-7 were labeled with Red CMTPX, and then the labeled tumor cells were digested and resuspended. A hundred labeled tumor cells per 1 nl were injected into the zebrafish embryos developed for 48 h. The zebrafish injected with tumor cells were incubated in an incubator at 28.5°C for about 1 h under the action of different concentrations of 7m and then were transferred to an incubator at 35°C."}, "[3]": {"test_system": "intersegmental vessel (ISV) development, Tg (flk: EGFP) embryos", "experiment": "Anti-angiogenic effect on zebrafish embryos", "assay_type": "in vivo", "source_text": "Zebrafish embryo is a powerful model to study human diseases, and the transgenic zebrafish labeled with green fluorescent protein (GFP) in endothelial cells are always used to analyze angiogenesis activity in vivo ([Rocke et al., 2009]). Accordingly, we treated the transgenic Tg (flk: EGFP) embryos with different doses of 7m (0.5, 1, 2.5, 5 μΜ), and 30 hpf zebrafish was imaged by fluorescent microscopy to examine the effect on intersegmental vessel (ISV) development. […] When the concentration of 7m was elevated to 2.5 μΜ, the […] effect was more pronounced as evidenced by the 3.5- to 4-fold reduction in the number of SIVs.\nThe transgenic zebrafish Tg (flk: EGFP) embryos were paired normally and collected into a six-well plate (n = 30/well), then 1 ml of aquaculture water (0.2 g/L distilled water instant sea salt) was added and were raised at 28.5°C. When the zebrafish embryos developed to 12 hpf, the indicated concentrations of 7m were added, and 30 embryos were selected for each concentration gradient and incubated at 28.5°C to 30 hpf. At 30 hpf, the zebrafish embryos were imaged and photographed under a fluorescence microscope to observe the growth of blood vessels in the body, and the number of intersegmental blood vessels (ISV) was recorded."}, "[4]": {"test_system": "tubulin", "experiment": "Tubulin polymerization in vitro (fluorescence)", "assay_type": "biochemical", "details": "37°C; read-out: IC50, inhibition of tubulin polymerization", "description": "Data are presented as the mean ± SD from three independent experiments. **p < 0.01 vs. the vehicle control.\nAn in vitro assay was performed to monitor the time-dependent polymerization of tubulin into microtubules. The 96-well cell culture plate was incubated at 37°C for 10 min, and test compounds and reference compounds were prepared with a 10× analyte stock solution. Five microliters of 10× analyte stock solution was added to a 96-well plate, and the microplate reader was heated at 37°C for 1 min. Immediately 85 μl of Tubulin Stock was drawn and mixed with the above mixture to prepare the tubulin reaction solution, and 50 μl of the tubulin reaction solution was to each well. The multifunctional microplate reader measured the absorbance, and the measured fluorescence value represents the level of tubulin in the polymerized state in the reaction solution."}, "[5]": {"test_system": "Caspase-3/-7/-9 and PARP in MCF-7 cells", "experiment": "Western blot of apoptosis-related proteins", "assay_type": "cell-based, human", "source_text": "The Caspase family proteins are considered to be critical regulators of cell apoptosis and facilitate cellular disassembly. Among them, Caspase-9 is termed as a typical caspase and is usually activated first, which in turn activates the “executioner” of apoptosis induction, in particular, Caspase-3. It is known that the […] of poly (ADP-ribose) polymerase (PARP), a downstream substrate of Caspase-3, is a common feature of nuclear fragmentation and chromatin condensation ([Hensley and Kyprianou, 2013]). Thus, the association between 7m-induced apoptosis and the expression of these proteins was investigated by Western blot analysis. MCF-7 cells were treated with 7m at different concentrations (100, 200, and 400 nM) for 48 h.\n(§1) MCF-7 cells were seeded into […] dishes at a density of 6 × 10^5/dish and incubated for 24 h. After treating the cells with the compound 7m, the cells were cultured for 48 h and washed with PBS, and then the soluble and insoluble tubulin fractions were collected. Protein quantification was performed by BCA Protein Concentration Determination Kit following centrifugation at 12,000 rpm for 10 min at 4°C. Cell lysates were separated by SDS-PAGE at 80 V constant voltage for 30–40 min. […] After 5% skim milk was blocked for 1 h, the primary antibody was added and incubated overnight before being washed three times with PBST. The secondary antibody was incubated for 2 h at room temperature the next day and subsequently washed three times with PBST. Then the signal was detected with ECL."}, "[6]": {"test_system": "normal liver LO2 cells", "experiment": "Growth inhibition of normal cells", "assay_type": "cell-based, human"}, "[7]": {"test_system": "Cyclin B1, p-Cdc2 and P21 in MCF-7 cells", "experiment": "Western blot of cell cycle-related proteins", "assay_type": "cell-based, human", "details": "for P21, band quantification / cyclinB1, band quantification / pcdc2, band quantification: two runs", "experimental": "Cell cycle regulatory proteins Cyclin B1 and Cdc2 are key proteins to control the transition from G2 to M phase through increasing the G2/M intracellular fraction in cell cycle distribution. Some agents produce cell cycle arrest by decreasing Cyclin B1 level ([Xiao et al., 2018]), while others increase the Cyclin B1 level, depending on the cell types ([Zhang et al., 2016]).\nas §1"}}, "note": "Several values for one entry are separate records, joined by “and”; a condition that tells them apart may be missing. Identical values can stand only once. Like-named read-outs stand apart in the source and are kept apart here."}
{"substance": "3-(benzofuran-6-yl)-2-methyl-1-(3,4,5-trimethoxyphenyl)prop-2-en-1-one [Compound 7m]", "values": [{"measurement": "wound healing of MCF-7 cells (migration)", "setting": "[1]", "result": "significantly inhibited the wound healing"}, {"measurement": "fluorescence intensity and tumor size of MCF-7 cells vs vehicle", "setting": "[2]", "result": "reduced the fluorescence intensity and tumor size"}, {"measurement": "migration number of implanted MCF-7 cells", "setting": "[2]", "result": "notably reduced in a dose-dependent manner"}, {"measurement": "number and length of SIVs vs vehicle control", "setting": "[3]; 0.5 and 1 μΜ, 30 hpf", "result": "slightly reduced"}, {"measurement": "ISVs formations", "setting": "[3]; doses ≥5 μM", "result": "seriously impaired"}, {"measurement": "developmental toxicity in embryos", "setting": "[3]; doses ≥5 μM", "result": "developmental defects were observed"}, {"measurement": "IC50", "setting": "[4]", "result": 12200, "unit": "nM"}, {"measurement": "Caspase3, band quantification", "setting": "[5]; 100nM, two runs", "result": "1.6879 and 1.67"}, {"measurement": "Caspase7, band quantification", "setting": "[5]; 100nM, two runs", "result": "1.25 and 1.4891"}, {"measurement": "Caspase9, band quantification", "setting": "[5]; 100nM, two runs", "result": 0.8806}, {"measurement": "Cleaved caspase 3, band quantification", "setting": "[5]; 100nM, two runs", "result": "0.4362 and 0.4615"}, {"measurement": "Cleaved caspase 7, band quantification", "setting": "[5]; 100nM, two runs", "result": "0.3077 and 0.3272"}, {"measurement": "Cleaved caspase 9, band quantification", "setting": "[5]; 100nM, two runs", "result": "0.7024 and 0.6835"}, {"measurement": "Cleaved parp, band quantification", "setting": "[5]; 100nM, two runs", "result": "0.5428 and 0.547"}, {"measurement": "Caspase3, band quantification", "setting": "[5]; 200nM, two runs", "result": "1.615 and 1.544"}, {"measurement": "Caspase7, band quantification", "setting": "[5]; 200nM, two runs", "result": "1.204 and 1.374"}, {"measurement": "Caspase9, band quantification", "setting": "[5]; 200nM, two runs", "result": "0.8807 and 0.8294"}, {"measurement": "Cleaved caspase 3, band quantification", "setting": "[5]; 200nM, two runs", "result": "0.3538 and 0.3842"}, {"measurement": "Cleaved caspase 7, band quantification", "setting": "[5]; 200nM, two runs", "result": "0.3681 and 0.3821"}, {"measurement": "Cleaved caspase 9, band quantification", "setting": "[5]; 200nM, two runs", "result": "0.8845 and 0.8641"}, {"measurement": "Cleaved parp, band quantification", "setting": "[5]; 200nM, two runs", "result": "0.6141 and 0.6251"}, {"measurement": "PARP, band quantification", "setting": "[5]; 200nM, two runs", "result": "0.2886 and 0.4533"}, {"measurement": "Caspase3, band quantification", "setting": "[5]; 400nM, two runs", "result": "1.359 and 1.362"}, {"measurement": "Caspase7, band quantification", "setting": "[5]; 400nM, two runs", "result": "1.134 and 1.286"}, {"measurement": "Caspase9, band quantification", "setting": "[5]; 400nM, two runs", "result": "0.8246 and 0.7921"}, {"measurement": "Cleaved caspase 3, band quantification", "setting": "[5]; 400nM, two runs", "result": "0.6252 and 0.6493"}, {"measurement": "Cleaved caspase 7, band quantification", "setting": "[5]; 400nM, two runs", "result": "0.3556 and 0.4028"}, {"measurement": "Cleaved caspase 9, band quantification", "setting": "[5]; 400nM, two runs", "result": "0.8063 and 0.765"}, {"measurement": "Cleaved parp, band quantification", "setting": "[5]; 400nM, two runs", "result": "0.6767 and 0.7365"}, {"measurement": "activation of Caspase-3/-7/-9", "setting": "[5]; 100, 200, 400 nM, 48 h", "result": "concentration-dependent activation"}, {"measurement": "cleavage of PARP", "setting": "[5]; 100, 200, 400 nM, 48 h", "result": "significant cleavage of PARP"}, {"measurement": "Selectivity ratio", "setting": "[6]; (IC50 human normal cells LO2)/(IC50 MCF7)", "result": 4.9}, {"measurement": "IC50", "setting": "[6]; three single determinations, read-out: L02 (raw data of table 3, IC50)", "result": "885 nM and 871 nM and 914 nM"}, {"measurement": "IC50", "setting": "[6]; triplicate, read-out: IC50 ± SD, LO2", "result": "890 ± 14", "unit": "nM"}, {"measurement": "P21, band quantification", "setting": "[7]; 100nM", "result": "0.4949 and 0.5407"}, {"measurement": "cyclinB1, band quantification", "setting": "[7]; 100nM", "result": "1.376 and 1.378"}, {"measurement": "pcdc2, band quantification", "setting": "[7]; 100nM", "result": "0.4445 and 0.4619"}, {"measurement": "P21, band quantification", "setting": "[7]; 200nM", "result": "0.4098 and 0.48"}, {"measurement": "cyclinB1, band quantification", "setting": "[7]; 200nM", "result": "1.5822 and 1.545"}, {"measurement": "pcdc2, band quantification", "setting": "[7]; 200nM", "result": "0.4706 and 0.4291"}, {"measurement": "P21, band quantification", "setting": "[7]; 400nM", "result": "0.006743 and 0.008008"}, {"measurement": "cyclinB1, band quantification", "setting": "[7]; 400nM", "result": "1.8972 and 1.928"}, {"measurement": "pcdc2, band quantification", "setting": "[7]; 400nM", "result": "0.2956 and 0.3089"}, {"measurement": "Cyclin B1 expression", "setting": "[7]; 100, 200, 400 nM", "result": "overexpressed"}, {"measurement": "p-Cdc2 protein level", "setting": "[7]; 100, 200, 400 nM", "result": "dose-dependently decreased"}]}
